Literature values in US20230285278A1, “METHODS FOR TREATING CHRONIC RHINOSINUSITIS” (OptiNose, Inc., priority 2022, published 2023).
Like-named read-outs stand apart in the source and are kept apart here.

## CCC(=O)O[C@]1(C(=O)SCF)[C@H](C)C[C@H]2[C@@H]3C[C@H](F)C4=CC(=O)C=C[C@]4(C)[C@@]3(F)[C@@H](O)C[C@@]21C [Fluticasone propionate, S-(fluoromethyl) 6α,9-difluoro-11β,17-dihydroxy-16α-methyl-3oxoandrosta-1,4-diene-17β-carbothioate, 17-propionate]
In 96% ethanol
  Solubility: slightly soluble
In acetone
  Solubility: sparingly soluble
In dichloromethane
  Solubility: sparingly soluble
In dimethylformamide
  Solubility: freely soluble
In water
  Solubility: practically insoluble
